Results as given in patent publication US10253039B2, “Inhibitors of bacterial DNA gyrase with efficacy against gram-negative bacteria” (priority 2014, dated 2019).
In brackets after ≈: the same amount, converted by molar mass.

Columns and labels:
Assay type in all cases: cell-based
[1] = system: Staphylococcus epidermidis; experiment: MIC, 20-strain panel
Protocol: (§1) A microdilution method in 96-well plates was used and the MIC protocol established by the Clinical Laboratory Standards Institute was followed. From a growing subculture, a 1:10000 inoculum of each strain in Luria-Bertani media was prepared and aliquoted 100 μL in 4 columns of wells, except for the top row wells, which contained 200 μL of inoculum. A solution of gyramide C2 was aliquoted into 3 of the wells containing 200 μL and DMSO was added to the 4th well. The liquid in each of wells was mixed with a multi-channel pipet and 100 μL was transferred to the next well and mixed. The 2-fold dilution was continued down the 96-well plate until 100 μL was left, which was discarded. The plates were incubated at 37° C. with shaking for 16-18 hours. The MIC was determined as the lowest concentration that inhibited growth and had no turbidity by visual inspection.
(§2) Minimum inhibitory concentrations of various gyramide compounds against 20 strains of bacteria were determined using the procedure described above.

E. coli MG1655 = experiment: MIC, 20-strain panel; settings: Escherichia coli, MG1655, A: E. coli MG1655; read-out: MIC
Protocol: as §1, §2

[2] = system: Salmonella enterica subsp. enterica typhimurium; experiment: MIC, 20-strain panel; settings: F: Salmonella enterica subsp. enterica Typhimurium
Protocol: as §1, §2

[3] = system: Staphylococcus saprophyticus subsp. saprophyticus; experiment: MIC, 20-strain panel
Protocol: as §1, §2

Streptococcus pyogenes = experiment: MIC, 20-strain panel
Protocol: as §1, §2

[4] = system: Klebsiella pneumoniae subsp. pneumoniae; experiment: MIC, 20-strain panel; settings: E: Klebsiella pneumoniae subsp. pneumoniae
Protocol: as §1, §2

Streptococcus agalactiae = experiment: MIC, 20-strain panel
Protocol: as §1, §2

[5] = system: Staphylococcus aureus subsp. aureus; experiment: MIC, 20-strain panel; settings: H: Staphylococcus aureus subsp. aureus, read-out: MIC
Protocol: as §1, §2

Shigella flexneri = experiment: MIC, 20-strain panel; settings: G: Shigella flexneri
Protocol: as §1, §2

E. coli JW5503 (deltolC) = experiment: MIC, 20-strain panel; settings: Escherichia coli, C: E. coli JW5503 (deltolC)
Protocol: as §1, §2

Edwardsiella tarda = experiment: MIC, microdilution in 96-well plates; settings: D: Edwardsiella tarda
How it was run: (§3)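 MIC read by eye as the lowest concentration without turbidity, after 16-18 h shaking incubation at 37° C. Cells: 1:10000 inoculum from growing subculture in LB. Compound in 2-fold serial dilutions, triplicate wells, DMSO vehicle control; CLSI protocol.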

E. coli BW25113 = experiment: MIC, microdilution in 96-well plates; settings: Escherichia coli, BW25113, B: E. coli BW25113; read-out: MIC
How it was run: as §3

SMILES	MIC [1] [µg/mL]	MIC (E. coli MG1655) [µg/mL]	MIC [2] [µg/mL]	MIC [3] [µg/mL]	MIC (Streptococcus pyogenes) [µg/mL]	MIC [4] [µg/mL]	MIC (Streptococcus agalactiae) [µg/mL]	MIC [5] [µg/mL]	MIC (Shigella flexneri) [µg/mL]	MIC (E. coli JW5503 (deltolC)) [µg/mL]	MIC (Edwardsiella tarda) [µg/mL]	MIC (E. coli BW25113) [µg/mL]
COc1ccc(-c2ccc(CN3CC[C@@H](NS(=O)(=O)c4cccc(C(F)(F)F)c4)C3)cc2)cc1 [Compound 61]	~8 (≈ 16.3 µM)	> 8	> 8	> 8	~8 (≈ 16.3 µM)	> 8	> 8	> 8	> 8	4 (≈ 8.15 µM)	> 8	> 8
O=S(=O)(N[C@@H]1CCN(Cc2ccc3c(c2)OCCO3)C1)c1cccc(OC(F)(F)F)c1 [Compound 62]	> 8	> 8	> 8	> 8	> 8	> 8	> 8	> 8	> 8	8 (≈ 17.4 µM)	> 8	> 8
O=S(=O)(N[C@@H]1CCN(Cc2ccc(-c3cncnc3)cc2)C1)c1cccc(OC(F)(F)F)c1 [Compound 63]	> 8	> 8	> 8	> 8	> 8	> 8	> 8	> 8	> 8	4 (≈ 8.36 µM)	> 8	> 8
O=S(=O)(N[C@@H]1CCN(Cc2ccc(OCC(F)F)cc2)C1)c1cccc(C(F)(F)F)c1 [Compound 64]	> 8	> 8	4 (≈ 8.61 µM)	> 8	> 8	> 8	> 8	> 8	> 8	0.25 (≈ 0.538 µM)	> 8	> 8
O=S(=O)(N[C@@H]1CCN(Cc2ccc(OC3CC3)cc2)C1)c1cc(S(=O)(=O)c2ccccc2)cs1 [Compound 65]	> 8	> 8	> 8	> 8	> 8	> 8	> 8	> 8	> 8	> 8	> 8	> 8
COc1ccccc1-c1ccc(CN2CC[C@@H](NS(=O)(=O)c3cccc(C(F)(F)F)c3)C2)cc1 [Compound 66]	8 (≈ 16.3 µM)	> 8	> 8	> 8	> 8	> 8	> 8	> 8	> 8	4 (≈ 8.15 µM)	> 8	> 8
N#Cc1cccc(S(=O)(=O)N[C@@H]2CCN(Cc3ccc(-c4ccncc4)cc3)C2)c1 [Compound 67]	> 8	> 8	> 8	> 8	> 8	> 8	> 8	> 8	> 8	4 (≈ 9.56 µM)	> 8	> 8
CC(=O)c1cc(S(=O)(=O)N[C@@H]2CCN(Cc3ccc(-c4ccccc4)cc3)C2)ccc1C [Compound 68]	8 (≈ 17.8 µM)	> 8	> 8	> 8	> 8	> 8	> 8	> 8	> 8	8 (≈ 17.8 µM)	> 8	> 8
O=S(=O)(N[C@@H]1CCN(Cc2ccc(-c3ccccc3Cl)cc2)C1)c1cccc(C(F)(F)F)c1 [Compound 69]	4 (≈ 8.08 µM)	> 8	> 8	> 8	~8 (≈ 16.2 µM)	> 8	> 8	> 8	> 8	8 (≈ 16.2 µM)	> 8	> 8
N#Cc1cccc(S(=O)(=O)N[C@@H]2CCN(Cc3ccc(-c4ccccc4Cl)cc3)C2)c1 [Compound 70]	8 (≈ 17.7 µM)	> 8	> 8	> 8	> 8	> 8	> 8	> 8	> 8	1 (≈ 2.21 µM)	> 8	> 8
O=S(=O)(N[C@@H]1CCN(Cc2ccc(-c3ccccc3)cc2)C1)c1cc(F)cc(C(F)(F)F)c1 [Compound 71]	> 8	> 8	> 8	> 8	8 (≈ 16.7 µM)	> 8	> 8	> 8	> 8	4 (≈ 8.36 µM)	> 8	> 8
Cc1ccc(S(C)(=O)=O)cc1S(=O)(=O)N[C@@H]1CCN(Cc2ccc(OC(C)C)cc2)C1 [Compound 72]	> 8	> 8	> 8	> 8	> 8	> 8	> 8	> 8	> 8	> 8	> 8	> 8
Cc1ccc(S(C)(=O)=O)cc1S(=O)(=O)N[C@@H]1CCN(Cc2ccc(-c3ccccc3)cc2)C1 [Compound 73]	> 8	> 8	> 8	> 8	> 8	> 8	> 8	> 8	> 8	4 (≈ 8.25 µM)	> 8	> 8
COc1ccc(-c2ccc(CN3CC[C@@H](NS(=O)(=O)c4cccc(OC(F)(F)F)c4)C3)cc2)cc1 [Compound 74]	> 8	> 8	> 8	> 8	> 8	> 8	> 8	> 8	> 8	8 (≈ 15.8 µM)	> 8	> 8
O=S(=O)(N[C@@H]1CCN(Cc2ccc(-c3ccccc3Cl)cc2)C1)c1cccc(OC(F)(F)F)c1 [Compound 75]	> 8	> 8	> 8	> 8	~8 (≈ 15.7 µM)	> 8	> 8	> 8	> 8	~8 (≈ 15.7 µM)	> 8	> 8
COc1ccccc1-c1ccc(CN2CC[C@@H](NS(=O)(=O)c3cccc(OC(F)(F)F)c3)C2)cc1 [Compound 76]	> 8	> 8	> 8	> 8	> 8	> 8	> 8	> 8	> 8	8 (≈ 15.8 µM)	> 8	> 8
CC(C)Oc1ccc(CN2CC[C@@H](NS(=O)(=O)c3cc(F)cc(C(F)(F)F)c3)C2)cc1 [Compound 78]	> 8	> 8	> 8	> 8	> 8	> 8	> 8	> 8	> 8	~8 (≈ 17.4 µM)	> 8	> 8
Cc1ccc(S(C)(=O)=O)cc1S(=O)(=O)N[C@@H]1CCN(Cc2ccc(OC3CC3)cc2)C1 [Compound 79]	> 8	> 8	> 8	> 8	> 8	> 8	> 8	> 8	> 8	> 8	> 8	> 8
COc1ccc(-c2ccc(CN3CC[C@@H](NS(=O)(=O)c4cccc(C#N)c4)C3)cc2)cc1 [Compound 80]	> 8	> 8	> 8	> 8	> 8	> 8	> 8	> 8	> 8	> 8	> 8	> 8
O=S(=O)(N[C@@H]1CCN(Cc2ccc(-c3ccccc3)cc2)C1)c1cc(C(F)(F)F)cc(C(F)(F)F)c1 [Compound 81]	8 (≈ 15.1 µM)	> 8	> 8	> 8	~8 (≈ 15.1 µM)	> 8	> 8	> 8	> 8	> 8	> 8	> 8
Cc1c(S(=O)(=O)N[C@@H]2CCN(Cc3ccc(-c4ccccc4)cc3)C2)sc2ccc(Cl)cc12 [Compound 82]	> 8	> 8	> 8	> 8	> 8	> 8	> 8	> 8	> 8	> 8	> 8	> 8
